# From patent US20240041042A1, “1-(PYRIDYL)-5-AZINYLPYRAZOLE DERIVATIVES, AND THEIR USE FOR CONTROL OF UNDESIRED PLANT GROWTH” (Bayer Aktiengesellschaft, priority 2020, published 2024)
# Where two headings read alike, the source gives them in different places.
# Assays:
# Assay type in all cases: in vivo
# [1] = system: Polygonum convolvulus (POLCO); assay: Pre-emergence herbicidal action against POLCO
# In short: (§1)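 Dosages of 320 g/ha or less; pre-emergence; WP or EC in aqueous spray, 0.5% additive, 600 l/ha; greenhouse; visual % effect after ~3 wk relative to control pots.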
# Viola tricolor (VIOTR) [2] = assay: Post-emergence herbicidal action against VIOTR
# In short: (§2)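 Doses of 320 g/ha or lower, suffixes a, b and c marking different dosages, were applied post-emergence at the one-leaf stage in 600 l/ha water with 0.5% additive. Damage was assessed visually after about 3 weeks in the greenhouse.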
# [3] = system: Amaranthus retroflexus (AMARE); assay: Pre-emergence herbicidal action against AMARE; conditions: visual scoring after about 3 weeks vs untreated controls
# In short: as §1
# [4] = system: Abutilon theophrasti (ABUTH); assay: Post-emergence herbicidal action against ABUTH; conditions: visual rating about 3 weeks after treatment vs untreated controls (100% = plants have died, 0% = like control plants)
# In short: as §2
# [5] = system: Alopecurus myosuroides (ALOMY); assay: Post-emergence herbicidal action against ALOMY; conditions: 80 g/ha, visual rating about 3 weeks after treatment vs untreated controls (100% = plants have died, 0% = like control plants)
# In short: as §2
# Lolium rigidum (LOLRI) = assay: Pre-emergence herbicidal action against LOLRI
# In short: as §1
# [6] = system: Verconica persica (VERPE); assay: Pre-emergence herbicidal action against VERPE
# In short: as §1
# [7] = system: Digitaria sanguinalis (DIGSA); assay: Post-emergence herbicidal action against DIGSA; conditions: visual rating about 3 weeks after treatment
# In short: as §2
# Avena fatua (AVEFA) [8] = assay: Post-emergence herbicidal action against AVEFA; conditions: visual rating about 3 weeks after treatment
# In short: as §2
# [9] = system: Amaranthus retroflexus (AMARE); assay: Post-emergence herbicidal action against AMARE; conditions: 80 g/ha, visual rating about 3 weeks after treatment vs untreated controls (100% = plants have died, 0% = like control plants)
# In short: as §2
# Viola tricolor (VIOTR) [10] = assay: Pre-emergence herbicidal action against VIOTR
# In short: as §1
# [11] = system: Digitaria sanguinalis (DIGSA); assay: Pre-emergence herbicidal action against DIGSA
# From the text: Seeds of monocotyledonous and dicotyledonous weed plants and crop plants are placed in plastic or organic planting pots and covered with soil. The compounds of the invention, formulated in the form of wettable powders (WP) or as emulsion concentrates (EC), are then applied to the surface of the covering soil as aqueous suspension or emulsion with addition of 0.5% additive at a water application rate equivalent to 600 l/ha. After the treatment, the pots are placed in a greenhouse and kept under good growth conditions for the trial plants. After about 3 weeks, the effect of the preparations is scored visually in comparison with untreated controls as percentages. For example, 100% activity=the plants have died, 0% activity=like control plants.
# Tables A1 to A13 below show the effects of selected compounds of the general formula (I) on various harmful plants and at an application rate corresponding to 320 g/ha or lower, which were obtained by the experimental procedure mentioned above. The appendices “a”, “b” and “c” give differentiation by dosage used with otherwise the same harmful plants tested.
# [12] = system: Verconica persica (VERPE); assay: Post-emergence herbicidal action against VERPE
# In short: as §2
# Zea mays (ZEAMX) = system: Zea mays (ZEAMX)
# In short: (§3)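 Percent effect on the crop was judged by eye against untreated controls, where 0% means like control and 100% means dead plants. Plants had been sprayed post-emergence at the one-leaf stage and then kept under optimum greenhouse conditions for about 3 weeks.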
# Oryza sativa (ORYSA) = conditions: crop plant compatibility
# In short: as §3
# [13] = system: Polygonum convolvulus (POLCO); assay: Post-emergence herbicidal action against POLCO; conditions: dosage 80 g/ha
# In short: as §2
# [14] = system: Alopecurus myosuroides (ALOMY); assay: Pre-emergence herbicidal action against ALOMY; conditions: scored visually after about 3 weeks, 100% = plants have died
# In short: as §1
# [15] = system: Echinochloa crus-galli (ECHCG); assay: Pre-emergence herbicidal action against ECHCG
# In short: as §1
# [16] = system: Pharbitis purpurea (PHBPU); assay: Post-emergence herbicidal action against PHBPU
# In short: as §2
# Setaria viridis (SETVI) [17] = assay: Pre-emergence herbicidal action against SETVI
# In short: as §1
# Avena fatua (AVEFA) [18] = assay: Pre-emergence herbicidal action against AVEFA; conditions: 320 g/ha, visual scoring after about 3 weeks vs untreated controls
# In short: as §1
# [19] = system: Pharbitis purpurea (PHBPU); assay: Pre-emergence herbicidal action against PHBPU
# In short: as §1
# [20] = system: Matricaria inodora (MATIN); assay: Pre-emergence herbicidal action against MATIN
# In short: as §1
# [21] = system: Echinochloa crus-galli (ECHCG); assay: Post-emergence herbicidal action against ECHCG
# In short: as §2
# [22] = system: Matricaria inodora (MATIN); assay: Post-emergence herbicidal action against MATIN
# In short: as §2
# Setaria viridis (SETVI) [23] = assay: Post-emergence herbicidal action against SETVI; conditions: dosage 320 g/ha
# In short: as §2
# [24] = 80 g/ha, visual scoring after about 3 weeks vs untreated controls
# [25] = 80 g/ha, effect in comparison to untreated controls
Compound,Pre-emergence action against POLCO in % ([1]; dosage 80 g/ha) [%],Pre-emergence action against POLCO in % ([1]; dosage 320 g/ha) [%],Post-emergence action against VIOTR in % (Viola tricolor (VIOTR) [2]; 80 g/ha) [%],Pre-emergence action against AMARE in % ([3]; 80 g/ha) [%],Pre-emergence action against AMARE in % ([3]; 320 g/ha) [%],Pre-emergence action against LOLRI in % (Lolium rigidum (LOLRI); dosage 320 g/ha) [%],Pre-emergence action against VERPE in % ([6]; dosage 320 g/ha) [%],Post-emergence action against DIGSA in % ([7]; 80 g/ha) [%],"Pre-emergence action against VIOTR in % (Viola tricolor (VIOTR) [10]; 320 g/ha, Viola tricolor) [%]",Pre-emergence action against VIOTR in % (Viola tricolor (VIOTR) [10]; dosage 80 g/ha) [%],"Pre-emergence action against DIGSA in % [11, 24] [%]",Pre-emergence action against DIGSA in % ([11]; dosage 320 g/ha) [%],Post-emergence action against ORYSA in % (Oryza sativa (ORYSA); [25]) [%],Pre-emergence action against ALOMY ([14]; 320 g/ha) [%],Pre-emergence action against ECHCG in % ([15]; dosage 320 g/ha) [%],Post-emergence action against PHBPU in % ([16]; dosage 80 g/ha) [%],Pre-emergence action against SETVI in % (Setaria viridis (SETVI) [17]; dosage 320 g/ha) [%],Pre-emergence action against AVEFA in % (Avena fatua (AVEFA) [18]) [%],Pre-emergence action against PHBPU in % ([19]; dosage 320 g/ha) [%],Pre-emergence action against MATIN in % ([20]; dosage 320 g/ha) [%],further results
CCOC(=O)COc1nn(-c2ncccc2F)c(-c2ccc(F)nc2)c1C(F)(F)F [Example I-56],80,90,80,100,100,100,100,90,100,100,100,100,0,100,100,80,100,100,90,100,"Post-emergence action against ABUTH in % ([4]; 80 g/ha): 80%; Post-emergence action against ALOMY in % [5]: 90%; Pre-emergence action against LOLRI in % (Lolium rigidum (LOLRI); dosage 80 g/ha): 100%; Post-emergence action against AVEFA in % (Avena fatua (AVEFA) [8]; 80 g/ha): 80%; Post-emergence action against AMARE in % [9]: 80%; Post-emergence action against VERPE in % ([12]; dosage 80 g/ha): 80%; Post-emergence action against ZEAMX in % (crop plant compatibility) (Zea mays (ZEAMX); 20 g/ha, ZEAMX, effect in comparison to untreated controls): 0%; Post-emergence action against ZEAMX in % (Zea mays (ZEAMX); crop plant compatibility, 80 g/ha, effect vs untreated controls): 0%; Post-emergence action against ORYSA in % (Oryza sativa (ORYSA); 20 g/ha, effect vs untreated controls): 0%; Post-emergence action against POLCO in % [13]: 80%; Pre-emergence action against ALOMY ([14]; 80 g/ha): 100%"
COC(=O)COc1nn(-c2nc(F)ccc2F)c(-c2cncc(F)c2)c1Cl [Example I-216],90,90,80,90,90,80,90,80,100,100,90,100,10,90,100,80,100,,90,90,Post-emergence action against ECHCG in % ([21]; dosage 80 g/ha): 80%; Post-emergence action against ECHCG in % ([21]; dosage 320 g/ha): 80%; Post-emergence action against VIOTR in % (Viola tricolor (VIOTR) [2]; 320 g/ha): 80%; Post-emergence action against ABUTH in % ([4]; 320 g/ha): 80%; Post-emergence action against MATIN in % ([22]; dosage 80 g/ha): 80%; Post-emergence action against MATIN in % ([22]; dosage 320 g/ha): 80%; Post-emergence action against DIGSA in % ([7]; 320 g/ha): 80%; Post-emergence action against AVEFA in % (Avena fatua (AVEFA) [8]; 320 g/ha): 80%; Post-emergence action against SETVI in % (Setaria viridis (SETVI) [23]): 80%; Pre-emergence action against ECHCG in % ([15]; dosage 80 g/ha): 80%; Post-emergence action against PHBPU in % ([16]; dosage 320 g/ha): 80%; Pre-emergence action against SETVI in % (Setaria viridis (SETVI) [17]; dosage 80 g/ha): 80%; Pre-emergence action against PHBPU in % ([19]; dosage 80 g/ha): 90%; Pre-emergence action against MATIN in % ([20]; dosage 80 g/ha): 90%
O=C(O)COc1nn(-c2nc(F)ccc2F)c(-c2cncc(F)c2)c1Cl [Example I-231],,,,,90,80,80,,100,100,90,100,10,90,90,,90,90,90,90,"Post-emergence action against ECHCG in % ([21]; dosage 80 g/ha): 80%; Post-emergence action against ECHCG in % ([21]; dosage 320 g/ha): 90%; Post-emergence action against VIOTR in % (Viola tricolor (VIOTR) [2]; 320 g/ha): 80%; Post-emergence action against MATIN in % ([22]; dosage 80 g/ha): 80%; Post-emergence action against MATIN in % ([22]; dosage 320 g/ha): 80%; Pre-emergence action against VERPE in % ([6]; dosage 80 g/ha): 80%; Post-emergence action against DIGSA in % ([7]; 320 g/ha): 90%; Post-emergence action against VERPE in % ([12]; 320 g/ha, VERPE): 80%; Post-emergence action against SETVI in % (Setaria viridis (SETVI) [23]): 80%; Pre-emergence action against ECHCG in % ([15]; dosage 80 g/ha): 90%; Post-emergence action against PHBPU in % ([16]; dosage 320 g/ha): 80%; Pre-emergence action against SETVI in % (Setaria viridis (SETVI) [17]; dosage 80 g/ha): 90%; Pre-emergence action against PHBPU in % ([19]; dosage 80 g/ha): 90%; Pre-emergence action against MATIN in % ([20]; dosage 80 g/ha): 90%"
